According to patent US5011846A, “Medicament compositions derived from quinolizine and quinolizinone and methods of use thereof” (Merrell Dow Pharmaceuticals Inc., priority 1988, dated 1991):
Structures can show the parent of a compound that is named as a salt.

Columns and labels:
[1] = test system: nausea and vomiting induced by cancer chemotherapeutic agents; details: animal experimental model (Miner et al.; Costall et al.); cited from earlier work
[2] = test system: acute migraine attack; details: cited from earlier work
[3] = molecular target: 5-HT M-receptor; details: literature values (Fozard et al.), 5-HT receptor antagonism; cited from earlier work
[4] = test system: Von Bezold-Jarisch Reflex induced by 5-HT; experiment: Von Bezold-Jarisch Reflex induced by 5-HT injected intravenously into the rat; format: in vivo
Source text: The activity of these compounds against 5-HT can be assessed in vivo by measurement of the effect of the compound on the Von Bezold-Jarisch Reflex induced by 5-HT injected intravenously into the rat (see Paintal A.S., Physiol. Rev. 53, 159-227, 1973; J. R. Fozard, Naunyn-Schmiedeberg's Arch. Pharmacol., 326, 1984, 36-44). The transient cardiac slowing arises from an increased afferent vagus activity arising from stimulation by 5-HT of sensory afferent fibers in and around the heart.

[5] = 0.01-0.1 mg/kg given intravenously

Compound | prevention of nausea and vomiting induced by cancer chemotherapeutic agents [1] | pA2 [3] | further results
CN1[C@@H]2CC[C@H]1C[C@@H](OC(=O)c1cc(Cl)cc(Cl)c1)C2 [3,5-dichlorobenzoyltropine] | highly effective | – | efficacy in the acute migraine attack ([2]; double-blind clinical trial (Loisy et al.)): proved an effective treatment
CN1[C@@H]2CC[C@H]1C[C@@H](OC(=O)c1c[nH]c3ccccc13)C2 [(3α-tropanyl)-1H-indole-3-carboxylic acid ester] | highly effective | – | –
CN1[C@@H]2CC[C@H]1C[C@@H](OC(=O)c1ccccc1)C2 [benzoyltropine] | – | 7.2 | –
Cc1cc(C)cc(C(=O)OC2CC3CC4CC(C2)N3CC4=O)c1 (stereo not drawn) [endo-8-(3,5-dimethylbenzoyl-oxy)hexahydro-2,6-methano-2H-quinolizin-3(4H)-one] | – | – | suppression of Von Bezold-Jarisch Reflex response [4, 5]: suppressed the response dose-dependently; suppression of Von Bezold-Jarisch Reflex response ([4]; 0.25-1 mg/kg given orally): suppressed the response dose-dependently
O=C(OC1CC2CC3CC(C1)N2CC3=O)c1c[nH]c2ccccc12 (stereo not drawn) [endo-hexahydro-8-(3-indolylcarbonyloxy)-2,6-methano-2H-quinolizin-3(4H)-one hydrochloride] | – | – | suppression of Von Bezold-Jarisch Reflex response [4, 5]: suppressed the response dose-dependently; suppression of Von Bezold-Jarisch Reflex response ([4]; 0.25-1 mg/kg given orally): suppressed the response dose-dependently
CCN(CC)CCNC(=O)c1cc(Cl)c(N)cc1OC [metoclopramide] | highly effective | 7.2 | relief of an acute migraine attack ([2]; slow intravenous injection, 10 mg (Hughes 1977)): immediate relief of an acute migraine attack
COC(=O)[C@H]1[C@@H](OC(=O)c2ccccc2)C[C@@H]2CC[C@H]1N2 [nor (-) cocaine] | – | 7.7 | –
CN1[C@@H]2CC[C@H]1C[C@H](OC(=O)c1ccccc1)C2 [pseudotropyl benzoate] | – | 7.0 | –
